Assays:
Type in all cases: functional
[1] = tested on: SR; test: Cytotoxicity against human SR cells after 48 hrs by SRB assay
[2] = tested on: OVCAR-3; test: Cytotoxicity against human OVCAR3 cells assessed as cellular growth at 1 uM after 48 hrs by SRB assay relative to control
[3] = tested on: HCT-116; test: Cytotoxicity against human HCT116 cells assessed as cellular growth at 100 uM after 48 hrs by SRB assay relative to control
[4] = tested on: OVCAR-4; test: Cytotoxicity against human OVCAR4 cells assessed as cellular growth at 0.01 uM after 48 hrs by SRB assay relative to control
[5] = tested on: SF-268; test: Cytotoxicity against human SF268 cells assessed as cellular growth at 100 uM after 48 hrs by SRB assay relative to control
[6] = tested on: COLO 205; test: Cytotoxicity against human COLO205 cells assessed as cellular growth at 1 uM after 48 hrs by SRB assay relative to control
[7] = tested on: IGROV-1; test: Cytotoxicity against human IGROV1 cells after 48 hrs by SRB assay; conditions: IGROV-1, 48 h
[8] = tested on: SN12C; test: Cytotoxicity against human SN12C cells after 48 hrs by SRB assay
[9] = tested on: K562; test: Cytotoxicity against human K562 cells assessed as cellular growth at 100 uM after 48 hrs by SRB assay relative to control
[10] = tested on: BT-549; test: Cytotoxicity against human BT549 cells assessed as cellular growth at 0.1 uM after 48 hrs by SRB assay relative to control
[11] = tested on: SF-295; test: Cytotoxicity against human SF295 cells assessed as cellular growth at 100 uM after 48 hrs by SRB assay relative to control
[12] = tested on: NCI-H460; test: Cytotoxicity against human NCI-H460 cells assessed as cellular growth at 0.01 uM after 48 hrs by SRB assay relative to control
[13] = tested on: MDA-MB-468; test: Cytotoxicity against human MDA-MB-468 cells assessed as cellular growth at 100 uM after 48 hrs by SRB assay relative to control
[14] = tested on: SK-MEL-5; test: Cytotoxicity against human SK-MEL-5 cells assessed as cellular growth at 100 uM after 48 hrs by SRB assay relative to control
[15] = tested on: OVCAR-4; test: Cytotoxicity against human OVCAR4 cells assessed as cellular growth at 0.1 uM after 48 hrs by SRB assay relative to control
[16] = tested on: 786-0; test: Cytotoxicity against human 786-0 cells assessed as cellular growth at 0.01 uM after 48 hrs by SRB assay relative to control
[17] = tested on: UO-31; test: Cytotoxicity against human UO31 cells assessed as cellular growth at 100 uM after 48 hrs by SRB assay relative to control
[18] = tested on: SK-MEL-28; test: Cytotoxicity against human SK-MEL-28 cells assessed as cellular growth at 0.1 uM after 48 hrs by SRB assay relative to control
[19] = tested on: SF-268; test: Cytotoxicity against human SF268 cells after 48 hrs by SRB assay; conditions: SF-268, 48 h
[20] = tested on: OVCAR-4; test: Cytotoxicity against human OVCAR4 cells assessed as cellular growth at 1 uM after 48 hrs by SRB assay relative to control
[21] = tested on: NCI-H460; test: Cytotoxicity against human NCI-H460 cells assessed as cellular growth at 100 uM after 48 hrs by SRB assay relative to control
[22] = tested on: Malme-3M; test: Cytotoxicity against human MALME-3M cells after 48 hrs by SRB assay
[23] = tested on: Hs-578T; test: Cytotoxicity against human Hs578T cells after 48 hrs by SRB assay
[24] = tested on: SF-295; test: Cytotoxicity against human SF295 cells assessed as cellular growth at 0.1 uM after 48 hrs by SRB assay relative to control
[25] = tested on: K562; test: Cytotoxicity against human K562 cells assessed as cellular growth at 0.1 uM after 48 hrs by SRB assay relative to control
[26] = tested on: NCI-H460; test: Cytotoxicity against human NCI-H460 cells after 48 hrs by SRB assay; conditions: NCI-H460, 48 h
[27] = tested on: HOP-92; test: Cytotoxicity against human HOP92 cells assessed as cellular growth at 1 uM after 48 hrs by SRB assay relative to control
[28] = tested on: HL-60(TB); test: Cytotoxicity against human HL-60(TB) cells after 48 hrs by SRB assay; conditions: HL-60, 48 h
[29] = tested on: MDA-MB-231; test: Cytotoxicity against human MDA-MB-231 cells assessed as cellular growth at 1 uM after 48 hrs by SRB assay relative to control
[30] = tested on: UACC-257; test: Cytotoxicity against human UACC257 cells assessed as cellular growth at 1 uM after 48 hrs by SRB assay relative to control
[31] = Cytotoxicity against human NCI-ADR-RES cells after 48 hrs by SRB assay
[32] = tested on: OVCAR-3; test: Cytotoxicity against human OVCAR3 cells assessed as cellular growth at 0.1 uM after 48 hrs by SRB assay relative to control
[33] = tested on: LOX IMVI; test: Cytotoxicity against human LOXIMVI cells assessed as cellular growth at 1 uM after 48 hrs by SRB assay relative to control
[34] = tested on: Hs-578T; test: Cytotoxicity against human Hs578T cells assessed as cellular growth at 100 uM after 48 hrs by SRB assay relative to control
[35] = tested on: HCT-116; test: Cytotoxicity against human HCT116 cells assessed as cellular growth at 0.1 uM after 48 hrs by SRB assay relative to control
[36] = Cytotoxicity against human EKVX cells assessed as cellular growth at 0.1 uM after 48 hrs by SRB assay relative to control
[37] = read-out: LC50 (the source's name)
[38] = read-out: pLC50 (the source's name) (converted)

## CN1CCN(CCCn2c3c(sc4ncccc43)c(=O)n3nnc(-c4ccccc4)c23)CC1
[1]; read-out: GI50
  GI50: 2.25 µM
[1]; read-out: TGI
  TGI: 4.74 µM
[1]; read-out: pGI50 (converted)
  GI50: 2.24 µM
[1]; read-out: pTGI (converted)
  TGI: 4.79 µM
[2]
  Activity: 96%
[3]
  Activity: -64%
[4]
  Activity: 100%
[5]
  Activity: -86%
[6]
  Activity: 86%
[7]; read-out: GI50
  GI50: 2 µM
[7]; [37]
  CC50: 9.78 µM
[7]; read-out: TGI
  TGI: 4.42 µM
[7]; read-out: pGI50 (converted)
  GI50: 2 µM
[7]; [38]
  CC50: 9.77 µM
[7]; read-out: pTGI (converted)
  TGI: 4.47 µM
[8]; read-out: GI50
  GI50: 1.81 µM
[8]; read-out: TGI
  TGI: 4.07 µM
[8]; read-out: pGI50 (converted)
  GI50: 1.82 µM
[8]; read-out: pTGI (converted)
  TGI: 4.07 µM
[9]
  Activity: -29%
[10]
  Activity: 98%
[11]
  Activity: -84%
[12]
  Activity: 102%
[13]
  Activity: -91%
[14]
  Activity: -96%
[15]
  Activity: 101%
[16]
  Activity: 103%
[17]
  Activity: -87%
[18]
  Activity: 95%
[19]; read-out: GI50
  GI50: 1.61 µM
[19]; [37]
  CC50: 6.81 µM
[19]; read-out: TGI
  TGI: 3.31 µM
[19]; read-out: pGI50 (converted)
  GI50: 1.62 µM
[19]; [38]
  CC50: 6.76 µM
[19]; read-out: pTGI (converted)
  TGI: 3.31 µM
[20]
  Activity: 93%
[21]
  Activity: -72%
[22]; read-out: GI50
  GI50: 1.97 µM
[22]; [37]
  CC50: 6.72 µM
[22]; read-out: TGI
  TGI: 3.64 µM
[22]; read-out: pGI50 (converted)
  GI50: 1.95 µM
[22]; [38]
  CC50: 6.76 µM
[22]; read-out: pTGI (converted)
  TGI: 3.63 µM
[23]; read-out: GI50
  GI50: 14.9 µM
[23]; [37]
  CC50: > 100 µM
[23]; read-out: TGI
  TGI: 41.7 µM
[23]; read-out: pGI50 (converted)
  GI50: 14.8 µM
[23]; read-out: pLC50 (converted)
  CC50: > 100 µM
[23]; read-out: pTGI (converted)
  TGI: 41.7 µM
[24]
  Activity: 94%
[25]
  Activity: 98%
[26]; read-out: GI50
  GI50: 1.92 µM
[26]; [37]
  CC50: 8.13 µM
[26]; read-out: TGI
  TGI: 3.95 µM
[26]; read-out: pGI50 (converted)
  GI50: 1.91 µM
[26]; [38]
  CC50: 8.13 µM
[26]; read-out: pTGI (converted)
  TGI: 3.98 µM
[27]
  Activity: 82%
[28]; read-out: GI50
  GI50: 1.86 µM
[28]; [37]
  CC50: 9.05 µM
[28]; read-out: TGI
  TGI: 4.1 µM
[28]; read-out: pGI50 (converted)
  GI50: 1.86 µM
[28]; [38]
  CC50: 9.12 µM
[28]; read-out: pTGI (converted)
  TGI: 4.07 µM
[29]
  Activity: 87%
[30]
  Activity: 97%
[31]; read-out: GI50
  GI50: 2.23 µM
[31]; [37]
  CC50: 43.2 µM
[31]; read-out: TGI
  TGI: 5.8 µM
[31]; read-out: pGI50 (converted)
  GI50: 2.24 µM
[31]; [38]
  CC50: 43.7 µM
[31]; read-out: pTGI (converted)
  TGI: 5.75 µM
[32]
  Activity: 95%
[33]
  Activity: 86%
[34]
  Activity: -43%
[35]
  Activity: 96%
[36]
  Activity: 92%

From ChEMBL document CHEMBL2401728, “An unexpected Dimroth rearrangement leading to annelated thieno[3,2-d][1,2,3]triazolo[1,5-a]pyrimidines with potent antitumor activity” (Eur J Med Chem, 2013)
